Measured values published in US20130072874A1, “DEVICE HAVING ARRAY PROVIDED WITH FINE PROTRUSIONS” (HISAMITSU PHARMACEUTICAL CO., INC., priority 2010, published 2013).

System: shaved dorsal portion of each guinea pig
Experiment: Suppression of UVB-induced pigmentation, serum applied in advance then device
Assay type: in vivo
Details: serum 80 μL (20 μL/cm^2) applied, then 150 μm array device; from the 4th day of device application onward
Description: A serum containing 4-(4-hydroxyphenyl)-2-butanol as an active ingredient solution was applied at 80 μL (20 μL/cm^2) to the shaved dorsal portion of each guinea pig, and then, a device having an array provided with microprotrusions was prepared for the purpose of stretching the skin by the microprotrusions of the array. The array was made of polylactic acid as a material and was of 150 μm as the length of the protrusions, 841 protrusions/cm^2 as the density of the protrusions, and 1 cm^2 as the area, and for a device, the array was fixed onto a covering member (holding member) prepared by stacking a rubber-based pressure-sensitive adhesive layer onto a support (3 cm×5 cm) made of nonwoven fabric.

`CC(O)CCc1ccc(O)cc1` (stereo not shown) [4-(4-hydroxyphenyl)-2-butanol] was tested, and the “effect of suppressing pigmentation attributed to UVB irradiation” value was “effect of suppressing pigmentation attributed to UVB irradiation was observed”.
